ChEMBL document CHEMBL4339198, “Use of a Conformational-Switching Mechanism to Modulate Exposed Polarity: Discovery of CCR2 Antagonist BMS-741672” (ACS Med Chem Lett, 2019)
Active and inactive are the calls of the source. The calls are words filed in the database; no cut-off is given here.

Legend:
[1] = Permeability of the compound at pH 7.4 by PAMPA; format: ADME; conditions: read-out: permeability
[2] = Stability in human liver microsomes assessed as parent compound remaining at 3 uM measured after 10 mins; format: ADME, Microsome; conditions: read-out: Stability
[3] = Oral bioavailability in mouse; format: ADME, organism-based; conditions: in vivo
[4] = Clearance in iv dosed mouse; format: ADME, organism-based; conditions: in vivo
[5] = Drug metabolism in human liver microsomes assessed as rate of disappearance at 3 uM; format: ADME, Microsome
[6] = target: C-C chemokine receptor type 2 (Homo sapiens, UniProt P41597)
Description: Displacement of [125I]MCP1 from CCR2 in human PBMC measured after 30 mins

[7] = target: T1, C-C chemokine receptor type 5 (Homo sapiens, UniProt P51681)
Description: Antagonist activity at CCR5 (unknown origin) expressed in human HT1080 cells assessed as blockade of MIP1beta-binding to receptor

hERG (KCNH2) [8] = target: T2, hERG (KCNH2) (Homo sapiens, UniProt Q12809); assay: in vitro
Description: Inhibition of human ERG at 10 uM by manual patch-clamp assay relative to control

hERG (KCNH2) [9] = target: T2, hERG (KCNH2); assay: Inhibition of human ERG at 30 uM by manual patch-clamp assay relative to control
[10] = Half life in iv dosed rat; conditions: in vivo
[11] = Oral bioavailability in cynomolgus monkey; conditions: in vivo
[12] = Half life in iv dosed cynomolgus monkey; conditions: in vivo
[13] = target: T1, C-C chemokine receptor type 5; assay: Binding affinity to CCR5 in T-cell (unknown origin)
Cynomolgus monkey = assay: In vivo antagonist activity at CCR2 in po dosed cynomolgus monkey assessed as inhibition of MCP1-induced chemotaxis administered once daily for three days followed by MCP1 stimulation and measured after 18 hrs; format: functional, organism-based; conditions: Macaca fascicularis
Mus musculus = assay: Protection against C57BL/6-SVJ12 mouse model of thioglycollate-induced peritonitis administered orally 1 hr prior to thioglycollate-stimulation for 48 hrs and subsequent bid dosing for 3 days following 1 hr thioglycollate-stimulation measured by Wright-Giemsa Staining based flow cytometry; format: functional, organism-based
[14] = Toxicity in rat administered as single dose; conditions: in vivo
[15] = Toxicity in monkey administered as single dose; set-up: species or system Macaca mulatta; conditions: rhesus monkey, in vivo
[16] = Toxicity in rat measured after 14 days; conditions: in vivo, 336 h
[17] = Cardiotoxicity in telemetered monkey assessed as changes in QTc interval at 30 mg/kg; format: toxicity, organism-based, Macaca mulatta; conditions: rhesus monkey, in vivo

T2 sequence (Q12809 whole entry): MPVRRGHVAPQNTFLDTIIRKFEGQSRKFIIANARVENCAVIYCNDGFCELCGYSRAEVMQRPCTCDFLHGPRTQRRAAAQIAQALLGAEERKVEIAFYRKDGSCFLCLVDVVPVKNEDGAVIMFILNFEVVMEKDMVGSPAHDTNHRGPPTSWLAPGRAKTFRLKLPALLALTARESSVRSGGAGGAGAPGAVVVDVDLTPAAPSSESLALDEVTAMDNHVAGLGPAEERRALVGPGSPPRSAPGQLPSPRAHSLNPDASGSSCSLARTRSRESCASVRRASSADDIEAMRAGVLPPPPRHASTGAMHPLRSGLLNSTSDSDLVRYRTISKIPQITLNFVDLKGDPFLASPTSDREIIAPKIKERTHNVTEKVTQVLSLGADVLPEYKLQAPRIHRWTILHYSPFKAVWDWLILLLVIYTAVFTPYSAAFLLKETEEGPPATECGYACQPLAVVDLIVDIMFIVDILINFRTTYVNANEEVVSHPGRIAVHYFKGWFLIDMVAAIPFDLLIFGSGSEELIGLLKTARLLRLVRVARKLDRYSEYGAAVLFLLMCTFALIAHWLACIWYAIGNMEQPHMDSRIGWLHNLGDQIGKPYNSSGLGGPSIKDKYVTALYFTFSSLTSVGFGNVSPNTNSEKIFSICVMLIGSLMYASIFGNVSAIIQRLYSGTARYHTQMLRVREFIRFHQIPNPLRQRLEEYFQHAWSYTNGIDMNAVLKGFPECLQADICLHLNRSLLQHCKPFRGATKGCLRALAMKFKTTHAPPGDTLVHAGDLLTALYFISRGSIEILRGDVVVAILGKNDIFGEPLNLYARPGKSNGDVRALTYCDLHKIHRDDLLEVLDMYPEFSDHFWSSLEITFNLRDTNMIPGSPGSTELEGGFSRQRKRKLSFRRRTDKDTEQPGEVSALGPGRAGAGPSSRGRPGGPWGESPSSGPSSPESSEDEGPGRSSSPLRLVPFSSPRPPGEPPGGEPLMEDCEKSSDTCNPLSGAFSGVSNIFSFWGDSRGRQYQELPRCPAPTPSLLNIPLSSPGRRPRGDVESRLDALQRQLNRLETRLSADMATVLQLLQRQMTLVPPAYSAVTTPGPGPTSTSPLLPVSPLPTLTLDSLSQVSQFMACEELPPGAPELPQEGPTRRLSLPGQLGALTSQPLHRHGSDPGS
T1 sequence (P51681 whole entry): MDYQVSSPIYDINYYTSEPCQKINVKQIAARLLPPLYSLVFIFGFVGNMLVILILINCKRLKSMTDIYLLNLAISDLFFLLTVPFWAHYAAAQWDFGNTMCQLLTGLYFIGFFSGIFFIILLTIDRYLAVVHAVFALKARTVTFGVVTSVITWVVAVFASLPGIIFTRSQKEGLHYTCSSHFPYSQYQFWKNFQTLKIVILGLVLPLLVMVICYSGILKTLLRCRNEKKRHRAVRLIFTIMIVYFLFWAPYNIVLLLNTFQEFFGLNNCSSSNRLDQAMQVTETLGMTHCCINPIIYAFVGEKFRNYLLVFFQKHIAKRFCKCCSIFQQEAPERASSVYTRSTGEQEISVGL
C-C chemokine receptor type 2, sequence (P41597 whole entry): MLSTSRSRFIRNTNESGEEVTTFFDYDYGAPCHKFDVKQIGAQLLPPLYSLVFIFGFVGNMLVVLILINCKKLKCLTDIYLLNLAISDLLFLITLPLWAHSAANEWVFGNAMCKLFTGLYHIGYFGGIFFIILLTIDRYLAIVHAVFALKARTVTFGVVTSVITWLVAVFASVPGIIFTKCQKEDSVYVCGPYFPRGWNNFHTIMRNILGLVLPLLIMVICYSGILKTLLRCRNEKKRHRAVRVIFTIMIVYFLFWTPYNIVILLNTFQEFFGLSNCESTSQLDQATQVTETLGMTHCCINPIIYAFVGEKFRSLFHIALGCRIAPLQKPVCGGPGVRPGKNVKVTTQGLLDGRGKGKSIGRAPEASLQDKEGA

Row | Structure (SMILES) | Papp [1] [×10⁻⁶ cm/s] | remaining at 10 min, 3 µM [2] [%] | bioavailability [3] [%] | clearance [4] [mL/min/kg] | Drug metabolism [5] [nmol/min] | IC50 [6] [nM] | IC50 [7] [nM] | inhibition at 10 µM (hERG (KCNH2) [8]) [%] | inhibition at 30 µM (hERG (KCNH2) [9]) [%] | half-life [10] [h] | bioavailability [11] [%] | half-life [12] [h] | Kd [13] [nM] | inhibition (Cynomolgus monkey) | Activity (Mus musculus) | Activity [14] | Activity [15] | Activity [16] | Activity [17]
1 | CC(C)N(C)[C@@H]1CC[C@H](N2CC[C@H](NC(=O)c3cccc(C(F)(F)F)c3)C2=O)[C@H](NS(C)(=O)=O)C1 | 59.3 | 85 | 35 | 258 | 0.05 | 1.9 | 3470 | – | – | – | – | – | – | – | – | – | – | – | –
2 | CCC[C@@H]1C[C@H](N(C)C(C)C)CC[C@@H]1N1CC[C@H](Nc2ncnc3ccc(C(F)(F)F)cc23)C1=O | 52.9 | 100 | – | – | 0 | – | – | – | – | – | – | – | – | – | – | – | – | – | –
3 | CC(C)N(C)[C@@H]1CC[C@H](N2CC[C@H](NC(=O)c3cccc(C(F)(F)F)c3)C2=O)[C@H](N(C)S(C)(=O)=O)C1 | 6.5 | 100 | 11 | 67 | 0 | 1.4 | 1570 | 7 | – | – | – | – | – | – | – | – | – | – | –
4 | CC(C)N(C)[C@@H]1CC[C@H](N2CC[C@H](Nc3ncnc4ccc(C(F)(F)F)cc34)C2=O)[C@H](CS(C)(=O)=O)C1 | 1.4 | 99 | – | – | 0 | 0.9 | 190 | – | 16 | – | – | – | – | – | – | – | – | – | –
5 | CC(C)N(C)[C@@H]1CC[C@H](N2CC[C@H](NC(=O)c3cccc(C(F)(F)F)c3)C2=O)[C@H](CS(C)(=O)=O)C1 | 9.4 | 100 | – | 70 | 0 | – | 1640 | – | – | – | – | – | – | – | – | – | – | – | –
6 | CC(=O)N[C@@H]1C[C@H](N(C)C(C)C)CC[C@@H]1N1CC[C@H](Nc2ncnc3ccc(C(F)(F)F)cc23)C1=O | – | 95 | 28 | 38 | 0.01 | – | 780 | 33 | – | 5.1 | 46 | 3.2 | 23.6 | Active | Active | Non-Toxic | Non-Toxic | Non-Toxic | Non-Toxic
7 | CC(C)N(C)[C@@H]1CC[C@H](N2CC[C@H](Nc3ncnc4ccc(C(F)(F)F)cc34)C2=O)[C@H](NS(C)(=O)=O)C1 [BMS-741672] | 39.4 | 58 | – | – | 0.13 | 0.4 | 287 | 74 | – | – | – | – | – | – | – | – | – | – | –
